Columns and labels:
[1] = tested on: BDNF; design: method as in PMID 21343524; details: rat traumatic brain injury models; cited from earlier work
[2] = tested on: C57BL/6J mice; assay: Y-maze, scopolamine induced memory impairment; type: in vivo; details: scopolamine 1 mg/kg i.p.; J147 200 ppm, donepezil 20 ppm in food for two weeks
Procedure: (§1) A total of 60 male mice aged eight weeks were housed 4 per cage and were divided into five groups with 12 mice per group. Treatments were administered in the food (TestDiet® 5015, Richmond, IN, USA) for a period of two weeks before commencement of behavioral testing. […] Following two weeks of treatment, memory impairment was induced by intraperitoneal (i.p.) injection of scopolamine (1 mg/kg) 30 minutes prior to each of the following behavioral tests: Y-maze, probe trial of the water maze and contextual and cued fear conditioning. Mice were allowed to rest for two days between each behavior test. All mice received scopolamine except for one of the control groups, which received saline as a control. Mice were sacrificed 24 hours after the last behavioral test for tissue harvesting.
Spontaneous alternation, the tendency to alternate free choices in a Y-maze (three arms), is a model for studying short term working memory in mice. Mice were injected with 1 mg/kg of scopolamine or saline 30 minutes prior to testing. Then each mouse was placed in the center of the Y and arm entries were recorded by video camera and the order of entries were recorded for the first 15 entries. Spontaneous alternations are defined as consecutive triplets of different arm choices.

[3] = tested on: C57BL/6J mice; assay: two-day water maze, scopolamine induced memory impairment; type: in vivo; details: scopolamine 1 mg/kg i.p.; J147 200 ppm, donepezil 20 ppm in food for two weeks
Procedure: as §1
Spatial memory was determined using the two-day water maze in 23-month-old huAPPswe/PS1 transgenic mice fed J147 at 200 ppm in food for the previous three months. The protocol was adapted from a publication by Gulinello and colleagues. Water temperature remained at 27°C throughout the experiment. […] The time it took each mouse to find the hidden platform was measured as escape latency. […] All trials were recorded using the EthoVision Software and statistics were computed using GraphPad Instat software (GraphPad Software, San Diego, CA, USA).

[4] = tested on: C57BL/6J mice; assay: fear conditioning, scopolamine induced memory impairment; type: in vivo; details: scopolamine 1 mg/kg i.p.; J147 200 ppm, donepezil 20 ppm in food; vs scopolamine
Procedure: as §1
Fear conditioning to either a cue or a context represents a form of associative learning. The read-out that is measured in contextual and cued fear conditioning is a freezing response that occurs following the pairing of an unconditioned stimulus (US), such as a foot shock, with a conditioned stimulus (CS), such as a particular context or cue (tone). The mouse will freeze if it remembers and associates that environment with the aversive stimulus. The hippocampus and the amygdala are required for fear memory where the hippocampus is involved in the formation and retrieval of context fear associations and the amygdala is involved in conditioning and recall of associations to contextual and discrete cues. This assay used fear conditioning chambers from Med Associates Inc. with Video Freeze Software (Med Associates Inc, St. Albans, VT, USA). On Day 1, mice were trained by allowing them to explore the chamber for 120 sec, mice were then presented with a 30-sec tone (2 kHz with 85 dB intensity) immediately followed by a 2-sec foot shock (0.7 mA). The tone-shock pairing was repeated following a 30-sec interval and the mice were again allowed to explore for 120 sec before removing them from the chamber. On Day 2, contextual memory, which requires a functioning hippocampus, was tested by placing the mice in the chambers and allowing them to explore for the same length of time as the previous day but without the tone and the shock. On Day 3, cued or emotional memory was tested, which relies on both hippocampus and amygdala. […] On Day 2, the time spent freezing is measured over the entire time in the chamber. […] The percentage of time spent freezing by each mouse is averaged per group and then groups can be compared and P-values calculated to determine statistical significance. On Day 3, the percentage of time spent freezing during the two tones is averaged per group, and then groups can be compared and P-values calculated to determine statistical significance. […]

SMILES: COc1cc(/C=C/c2cc(/C=C/c3ccc(O)c(OC)c3)n(-c3ccccc3)n2)ccc1O [CNB-001]
- BDNF levels [1]: increases BDNF levels

SMILES: COc1cc2c(cc1OC)C(=O)C(CC1CCN(Cc3ccccc3)CC1)C2 (centres unmarked) [donepezil, reference compound]
- short-term working memory (spontaneous alternations, Y maze) [2]: improve short-term working memory
- spatial memory (time to find hidden platform) [3]: failed to rescue the deficit
- contextual memory (freezing Day 2) [4]: did not improve memory
- cued memory (freezing in response to the tone, Day 3) [4]: neither effect was significant
